Reference: paper PMC8286840, “Identifying SARS-CoV-2 antiviral compounds by screening for small molecule inhibitors of Nsp3 papain-like protease” (Biochemical Journal, 2021)
Counter-ions that a name gives are not always drawn. Like-named read-outs stand apart in the source and are kept apart here.

Experiments:
[1] = molecular target: T1, SARS-CoV-2 PLpro (nsp3 1564–1878) (Severe acute respiratory syndrome coronavirus 2, UniProt P0DTD1); assay: biochemical; parameters: FRET-quenched peptide (Pro3) cleavage by PLpro, 10 min pre-incubation, slope over 20 min, normalised to no-compound control; conditions: low concentration screen
[2] = molecular target: T1, SARS-CoV-2 PLpro (nsp3 1564–1878); assay: biochemical; parameters: FRET-quenched peptide (Pro3) cleavage by PLpro, 10 min pre-incubation, slope over 20 min, normalised to no-compound control; conditions: high concentration screen
[3] = Well no.=1972, read-out: % of control remaining
[4] = Well no.=1676, read-out: % of control remaining
[5] = Well no.=3109, read-out: % of control remaining
[6] = Well no.=3111, read-out: % of control remaining
[7] = Well no.=8476, read-out: % of control remaining
[8] = Well no.=484, read-out: % of control remaining
[9] = Well no.=6262, read-out: % of control remaining
[10] = Well no.=3202, read-out: % of control remaining
[11] = Well no.=1765, read-out: % of control remaining
[12] = Well no.=5166, read-out: % of control remaining
[13] = Well no.=6153, read-out: % of control remaining
[14] = Well no.=8537, read-out: % of control remaining
[15] = Well no.=7355, read-out: % of control remaining
[16] = Well no.=7870, read-out: % of control remaining
[17] = Well no.=3164, read-out: % of control remaining
[18] = Well no.=392, read-out: % of control remaining
[19] = Well no.=449, read-out: % of control remaining
[20] = Well no.=7408, read-out: % of control remaining
[21] = Well no.=545, read-out: % of control remaining
[22] = Well no.=8153, read-out: % of control remaining
[23] = Well no.=5972, read-out: % of control remaining
[24] = Well no.=5339, read-out: % of control remaining
[25] = Well no.=8291, read-out: % of control remaining
[26] = Well no.=3278, read-out: % of control remaining
[27] = Well no.=5164, read-out: % of control remaining
[28] = Well no.=6662, read-out: % of control remaining
[29] = Well no.=5062, read-out: % of control remaining
[30] = Well no.=6465, read-out: % of control remaining
[31] = Well no.=5357, read-out: % of control remaining
[32] = read-out: % of control remaining, Well no.=1861
[33] = read-out: % of control remaining, Well no.=6467
[34] = Well no.=6653, read-out: % of control remaining
[35] = Well no.=6367, read-out: % of control remaining
[36] = Well no.=5319, read-out: % of control remaining
[37] = Well no.=7181, read-out: % of control remaining

Work on `C[C@]12CC[C@H](O)CC1=CC[C@@H]1[C@@H]2CC[C@]2(C)C(=O)CC[C@@H]12` [Dehydroepiandrosterone] yielded a remaining activity at 1.25 µM [1, 3] of 94.1% and a remaining activity at 3.75 µM [2, 3] of 98.4%.
`CC(C)Nc1cccnc1N1CCN(C(=O)c2cc3cc(NS(C)(=O)=O)ccc3[nH]2)CC1` [Delavirdine mesylate] showed a remaining activity at 1.25 µM [1, 4] of 108% and a remaining activity at 3.75 µM [2, 4] of 101%.
With `CCN1C[C@]2(COC)CC[C@H](OC)[C@@]34C1[C@]1(OCO[C@@]15C[C@H](OC)[C@H]1C[C@@H]3[C@@H]5[C@H]1OC)[C@@H](O)[C@H]24` [Delcorine] the remaining activity at 1.25 µM [1, 5] was 98.2% and the remaining activity at 3.75 µM [2, 5] was 101%.
`CCN1C[C@]2(C)CC[C@H](OC)[C@@]34C1[C@]1(OCO[C@@]15C[C@H](OC)[C@H]1C[C@]3(O)[C@@H]5[C@H]1OC)[C@@H](OC(C)=O)[C@H]24` [Deltaline] showed a remaining activity at 1.25 µM [1, 6] of 101% and a remaining activity at 3.75 µM [2, 6] of 103%.
In the case of `c1ccc(Cn2c(-c3ccc(OC[C@H](C4CCNCC4)n4c(-c5ccccc5)nc5ccccc54)cc3)nc3ccccc32)cc1` [Deltarasin], the remaining activity at 1.25 µM [1, 7] was 95.2% and the remaining activity at 3.75 µM [2, 7] was 92.7%.
Compound `CN(C)[C@@H]1C(O)=C(C(N)=O)C(=O)[C@@]2(O)C(O)=C3C(=O)c4c(O)ccc(Cl)c4[C@@H](O)[C@H]3C[C@@H]12` [Demeclocycline hydrochloride] has a remaining activity at 1.25 µM [1, 8] of 99.1% and a remaining activity at 3.75 µM [2, 8] of 96.9%.
In the case of `COc1cc(/C=C/C(O)=C/C(=O)/C=C/c2ccc(O)cc2)ccc1O` [Demethoxycurcumin], the remaining activity at 1.25 µM [1, 9] was 103% and the remaining activity at 3.75 µM [2, 9] was 98.7%.
For `C[C@H]1CC[C@@H]2[C@@H](C)[C@H]3[C@H](C[C@H]4[C@@H]5CC[C@H]6C[C@@H](O)CC[C@]6(C)[C@H]5CC[C@]34C)N2C1` [Demissidine], the remaining activity at 1.25 µM [1, 10] was 104% and the remaining activity at 3.75 µM [2, 10] was 107%.
With `CCCCn1c(=O)c2c(ncn2CC(C)=O)n(CCCC)c1=O` [Denbufylline] the remaining activity at 1.25 µM [1, 11] was 102% and the remaining activity at 3.75 µM [2, 11] was 99.8%.
Work on `Oc1ccc(OC2CCCCO2)cc1` (stereo not shown) [Deoxyarbutin] yielded a remaining activity at 1.25 µM [1, 12] of 103% and a remaining activity at 3.75 µM [2, 12] of 101%.
`C[C@H](CCC(=O)O)[C@H]1CC[C@H]2[C@@H]3CC[C@@H]4C[C@H](O)CC[C@]4(C)[C@H]3C[C@H](O)[C@]12C` [Deoxycholic acid] gave a remaining activity at 1.25 µM [1, 13] of 107%, a remaining activity at 1.25 µM [1, 14] of 102% and a remaining activity at 3.75 µM [2, 13] of 112%. The remaining activity at 3.75 µM [2, 14] was 103%.
Work on `Nc1ccn([C@H]2C[C@H](O)[C@@H](COP(=O)(O)OP(=O)(O)OP(=O)(O)O)O2)c(=O)n1` [Deoxycytidine triphosphate] yielded a remaining activity at 1.25 µM [1, 15] of 99.9%, a remaining activity at 1.25 µM [1, 16] of 101% and a remaining activity at 3.75 µM [2, 15] of 100%. For the same compound, the remaining activity at 3.75 µM [2, 16] was 102%.
`CC(C)=CCCC1=CC(=O)c2c(O)ccc(O)c2C1=O` [Deoxyshikonin] gave a remaining activity at 1.25 µM [1, 17] of 86.1% and a remaining activity at 3.75 µM [2, 17] of 85.7%.
`CN(N=O)c1cc(O)ccc1O` [Dephostatin] showed a remaining activity at 1.25 µM [1, 18] of 97.4% and a remaining activity at 3.75 µM [2, 18] of 97.3%.
`Cc1cc(N)c2ccccc2[n+]1CCCCCCCCCC[n+]1c(C)cc(N)c2ccccc21` [Dequalinium dichloride] gave a remaining activity at 1.25 µM [1, 19] of 101% and a remaining activity at 3.75 µM [2, 19] of 96.8%.
In the case of `COc1ccc(-c2cc(C(F)F)nn2-c2ccc(S(N)(=O)=O)cc2)cc1F` [Deracoxib], the remaining activity at 1.25 µM [1, 20] was 106% and the remaining activity at 3.75 µM [2, 20] was 102%.
For `CNCCCN1c2ccccc2CCc2ccccc21` [Desipramine hydrochloride], the remaining activity at 1.25 µM [1, 21] was 99.2% and the remaining activity at 3.75 µM [2, 21] was 101%.
Work on `N=C(N)NCCC[C@@H](NC(=O)[C@@H]1CCCN1C(=O)[C@@H]1CSSCCC(=O)N[C@@H](Cc2ccc(O)cc2)C(=O)N[C@@H](Cc2ccccc2)C(=O)N[C@@H](CCC(N)=O)C(=O)N[C@@H](CC(N)=O)C(=O)N1)C(=O)NCC(N)=O` [Desmopressin (Acetate)] yielded a remaining activity at 1.25 µM [1, 22] of 103% and a remaining activity at 3.75 µM [2, 22] of 96.9%.
Work on `CC(C)=CCC[C@@H](C)[C@H]1CC[C@H]2[C@@H]3CC=C4C[C@@H](O)CC[C@]4(C)[C@H]3CC[C@]12C` [Desmosterol] yielded a remaining activity at 1.25 µM [1, 23] of 101% and a remaining activity at 3.75 µM [2, 23] of 99%.
`CC1(C)O[C@@H]2C[C@H]3[C@@H]4CCC5=CC(=O)C=C[C@]5(C)[C@H]4[C@@H](O)C[C@]3(C)[C@]2(C(=O)CO)O1` [Desonide] was tested, and the remaining activity at 1.25 µM [1, 24] was 95.1%, the remaining activity at 1.25 µM [1, 25] was 99.7% and the remaining activity at 3.75 µM [2, 24] was 84.9%. It also gave a remaining activity at 3.75 µM [2, 25] of 96%.
`c1ccc2c(c1)CN1CCCC1=N2` [Desoxypeganine] showed a remaining activity at 1.25 µM [1, 26] of 98% and a remaining activity at 3.75 µM [2, 26] of 97.7%.
`CN(C)CC(c1ccc(O)cc1)C1(O)CCCCC1` (stereo not shown) [Desvenlafaxine] showed a remaining activity at 1.25 µM [1, 27] of 94.5% and a remaining activity at 3.75 µM [2, 27] of 96.9%.
`Cc1cccc(Cc2c[nH]cn2)c1C` [Detomidine (hydrochloride)] gave a remaining activity at 1.25 µM [1, 28] of 98.9% and a remaining activity at 3.75 µM [2, 28] of 102%.
For `Cc1cccc(Cc2c[nH]cn2)c1C` [Detomidine HCl], the remaining activity at 1.25 µM [1, 29] was 103% and the remaining activity at 3.75 µM [2, 29] was 105%.
In the case of `CC(=O)OCC(=O)[C@@]1(O)[C@H](C)C[C@H]2[C@@H]3CCC4=CC(=O)C=C[C@]4(C)[C@@]3(F)[C@@H](O)C[C@@]21C` [Dexamethasone (acetate)], the remaining activity at 1.25 µM [1, 30] was 107% and the remaining activity at 3.75 µM [2, 30] was 106%.
Work on `CC(=O)OCC(=O)[C@@]1(O)[C@H](C)C[C@H]2[C@@H]3CCC4=CC(=O)C=C[C@]4(C)[C@@]3(F)[C@@H](O)C[C@@]21C` [Dexamethasone acetate] yielded a remaining activity at 1.25 µM [1, 31] of 99.3% and a remaining activity at 3.75 µM [2, 31] of 98%.
`C[C@@H]1C[C@H]2[C@@H]3CCC4=CC(=O)C=C[C@]4(C)[C@@]3(F)[C@@H](O)C[C@]2(C)[C@@]1(O)C(=O)CO` [Dexamethasone] was tested, and the remaining activity at 1.25 µM [1, 32] was 99.1%, the remaining activity at 1.25 µM [1, 33] was 96.6% and the remaining activity at 3.75 µM [2, 32] was 100%. For the same compound, the remaining activity at 3.75 µM [2, 33] was 98.7%.
For `CN(C)CC[C@@H](c1ccc(Cl)cc1)c1ccccn1` [Dexchlorpheniramine (maleate)], the remaining activity at 1.25 µM [1, 34] was 103% and the remaining activity at 3.75 µM [2, 34] was 101%.
For `Cc1cccc([C@H](C)c2c[nH]cn2)c1C` [Dexmedetomidine (hydrochloride)], the remaining activity at 1.25 µM [1, 35] was 102% and the remaining activity at 3.75 µM [2, 35] was 103%.
In the case of `Cc1cccc([C@H](C)c2c[nH]cn2)c1C` [Dexmedetomidine], the remaining activity at 1.25 µM [1, 36] was 94.4% and the remaining activity at 3.75 µM [2, 36] was 95.8%.
In the case of `CCCN[C@@H]1CCc2nc(N)sc2C1` [Dexpramipexole (dihydrochloride)], the remaining activity at 1.25 µM [1, 37] was 98.2% and the remaining activity at 3.75 µM [2, 37] was 93.6%.
